Assay results published in patent US20230085307A1, “PYRIDAZINONE COMPOUND AND HERBICIDE” (NISSAN CHEMICAL CORPORATION, priority 2019, published 2023).

What follows are compounds tested on southern crabgrass (assay: Test Example 4: herbicidal effect by soil treatment (Table 19, symbol F)). Conditions: amount of applied herbicide 320 g/ha.
Assay type: in vivo, southern crabgrass (Digitaria ciliaris)
Summary of the method: (§1)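 Soil-surface application: an emulsion agent diluted with water to the predetermined dose is sprayed uniformly over seeds lying under roughly 1.5 cm of sterilized diluvial soil. Boxes stay in a greenhouse at 25° C. to 30° C. Three weeks later, each species is graded on previously defined criteria.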
In the case of `Cc1nn(C)c(=O)c(-c2c(-c3ccc4c(c3)OCCO4)sc3ccccc23)c1OC(=O)SC(C)(C)C` [1-092], the “herbicidal effect rating, F: southern crabgrass” value is reported as 0 (Herbicidal rate of 5% or less (almost no effect)). In the case of `Cc1nn(C)c(=O)c(-c2c(-c3ccc4c(c3)CCO4)sc3ccccc23)c1O` [1-101], the “herbicidal effect rating, F: southern crabgrass” value is reported as 3 (Herbicidal rate of 40% or more and less than 70%).

Each compound was assayed on green foxtail (assay: Test Example 5: herbicidal effect by foliage application, plastic box (Table 20, symbol G)). Conditions: foliage application, AAH 320 g/ha, three weeks after application.
Assay type: in vivo, green foxtail (Setaria viridis)
Summary of the method: (§2)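 Sow seeds spot-wise in sterilized diluvial soil; cover with ~1.5 cm soil. Grow 14 days in greenhouse, 25° C. to 30° C. Spray foliage with emulsion diluted to predetermined amount. Rate effect after 3 weeks.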
With `Cc1nn(C)c(=O)c(-c2c(-c3ccc4c(c3)OCCO4)sc3ccccc23)c1OC(=O)SC(C)(C)C` [1-092] the “G: green foxtail, herbicidal effect” value was 3 (Herbicidal rate of 40% or more and less than 70%). `Cc1nn(C)c(=O)c(-c2c(-c3ccc4c(c3)CCO4)sc3ccccc23)c1O` [1-101] was tested, and the “G: green foxtail, herbicidal effect” value was 5 (Herbicidal rate of 90% or more (almost completely withered)).

These compounds were tested on redroot pigweed (assay: Test Example 4: herbicidal effect by soil treatment (Table 19, symbol N)). Conditions: amount of applied herbicide 320 g/ha.
Assay type: in vivo, redroot pigweed (Amaranthus retroflexus)
Summary of the method: as §1
With `Cc1nn(C)c(=O)c(-c2c(-c3ccc4c(c3)OCCO4)sc3ccccc23)c1OC(=O)SC(C)(C)C` [1-092] the “herbicidal effect rating, N: redroot pigweed” value was 0 (Herbicidal rate of 5% or less (almost no effect)). With `Cc1nn(C)c(=O)c(-c2c(-c3ccc4c(c3)CCO4)sc3ccccc23)c1O` [1-101] the “herbicidal effect rating, N: redroot pigweed” value was 4 (Herbicidal rate of 70% or more and less than 90%).

The compounds below were run on false cleavers (assay: Test Example 5: herbicidal effect by foliage application, plastic box (Table 20, symbol Q)). Conditions: foliage application, AAH 320 g/ha, three weeks after application.
Assay type: in vivo, false cleavers (Galium spurium)
Summary of the method: as §2
With `Cc1nn(C)c(=O)c(-c2c(-c3ccc4c(c3)OCCO4)sc3ccccc23)c1OC(=O)SC(C)(C)C` [1-092] the “Q: false cleavers, herbicidal effect” value was 0 (Herbicidal rate of 5% or less (almost no effect)). `Cc1nn(C)c(=O)c(-c2c(-c3ccc4c(c3)CCO4)sc3ccccc23)c1O` [1-101] was tested, and the “Q: false cleavers, herbicidal effect” value was 3 (Herbicidal rate of 40% or more and less than 70%).

What follows are compounds tested on wild oat (assay: Test Example 4: herbicidal effect by soil treatment (Table 19, symbol I)). Conditions: amount of applied herbicide 320 g/ha.
Assay type: in vivo, wild oat (Avena fatua)
Summary of the method: as §1
For `Cc1nn(C)c(=O)c(-c2c(-c3ccc4c(c3)OCCO4)sc3ccccc23)c1OC(=O)SC(C)(C)C` [1-092], the “herbicidal effect rating, I: wild oat” value was 0 (Herbicidal rate of 5% or less (almost no effect)). `Cc1nn(C)c(=O)c(-c2c(-c3ccc4c(c3)CCO4)sc3ccccc23)c1O` [1-101] was tested, and the “herbicidal effect rating, I: wild oat” value was 0 (Herbicidal rate of 5% or less (almost no effect)).

The compounds below were run on lambsquarters (assay: Test Example 5: herbicidal effect by foliage application, plastic box (Table 20, symbol O)). Conditions: foliage application, AAH 320 g/ha, three weeks after application.
Assay type: in vivo, lambsquarters (Chenopodium album)
Summary of the method: as §2
For `Cc1nn(C)c(=O)c(-c2c(-c3ccc4c(c3)OCCO4)sc3ccccc23)c1OC(=O)SC(C)(C)C` [1-092], the “O: lambsquarters, herbicidal effect” value was 3 (Herbicidal rate of 40% or more and less than 70%). In the case of `Cc1nn(C)c(=O)c(-c2c(-c3ccc4c(c3)CCO4)sc3ccccc23)c1O` [1-101], the “O: lambsquarters, herbicidal effect” value is reported as 4 (Herbicidal rate of 70% or more and less than 90%).

What follows are compounds tested on blackgrass (assay: Test Example 4: herbicidal effect by soil treatment (Table 19, symbol J)). Conditions: amount of applied herbicide 320 g/ha.
Assay type: in vivo, blackgrass (Alopecurus myosuroides)
Summary of the method: as §1
In the case of `Cc1nn(C)c(=O)c(-c2c(-c3ccc4c(c3)OCCO4)sc3ccccc23)c1OC(=O)SC(C)(C)C` [1-092], the “herbicidal effect rating, J: blackgrass” value is reported as 0 (Herbicidal rate of 5% or less (almost no effect)). `Cc1nn(C)c(=O)c(-c2c(-c3ccc4c(c3)CCO4)sc3ccccc23)c1O` [1-101] was tested, and the “herbicidal effect rating, J: blackgrass” value was 0 (Herbicidal rate of 5% or less (almost no effect)).

Each compound was assayed on green foxtail (assay: Test Example 4: herbicidal effect by soil treatment (Table 19, symbol G)). Conditions: amount of applied herbicide 320 g/ha.
Assay type: in vivo, green foxtail (Setaria viridis)
Summary of the method: as §1
With `Cc1nn(C)c(=O)c(-c2c(-c3ccc4c(c3)OCCO4)sc3ccccc23)c1OC(=O)SC(C)(C)C` [1-092] the “herbicidal effect rating, G: green foxtail” value was 0 (Herbicidal rate of 5% or less (almost no effect)). For `Cc1nn(C)c(=O)c(-c2c(-c3ccc4c(c3)CCO4)sc3ccccc23)c1O` [1-101], the “herbicidal effect rating, G: green foxtail” value was 5 (Herbicidal rate of 90% or more (almost completely withered)).

These compounds were tested on late watergrass (assay: Test Example 2: herbicidal activity, application during weed generation under submerged conditions (Table 17, symbol A)). Conditions: AAH 320 g/ha; application during weed generation, submerged conditions.
Assay type: in vivo, late watergrass (Echinochloa oryzicola)
Summary of the method: (§3)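 3-wk visual-criteria score after one water-surface dose. Emulsion formulation, water-diluted to set rate; applied at 1–2 leaf stage; alluvial soil, 4 cm standing water; seeds co-sown; greenhouse 25–30° C.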
`Cc1nn(C)c(=O)c(-c2c(-c3ccc4c(c3)OCCO4)sc3ccccc23)c1OC(=O)SC(C)(C)C` [1-092] was tested, and the “herbicidal effect rating, A: late watergrass” value was 3 (Herbicidal rate of 40% or more and less than 70%). In the case of `Cc1nn(C)c(=O)c(-c2c(-c3ccc4c(c3)CCO4)sc3ccccc23)c1O` [1-101], the “herbicidal effect rating, A: late watergrass” value is reported as 3 (Herbicidal rate of 40% or more and less than 70%).

Each compound was assayed on false cleavers (assay: Test Example 4: herbicidal effect by soil treatment (Table 19, symbol Q)). Conditions: amount of applied herbicide 320 g/ha.
Assay type: in vivo, false cleavers (Galium spurium)
Summary of the method: as §1
`Cc1nn(C)c(=O)c(-c2c(-c3ccc4c(c3)OCCO4)sc3ccccc23)c1OC(=O)SC(C)(C)C` [1-092] was tested, and the “herbicidal effect rating, Q: false cleavers” value was 0 (Herbicidal rate of 5% or less (almost no effect)). For `Cc1nn(C)c(=O)c(-c2c(-c3ccc4c(c3)CCO4)sc3ccccc23)c1O` [1-101], the “herbicidal effect rating, Q: false cleavers” value was 3 (Herbicidal rate of 40% or more and less than 70%).

These compounds were tested on Italian ryegrass (assay: Test Example 5: herbicidal effect by foliage application, plastic box (Table 20, symbol K)). Conditions: foliage application, AAH 320 g/ha, three weeks after application.
Assay type: in vivo, Italian ryegrass (Lolium multiflorum)
Summary of the method: as §2
With `Cc1nn(C)c(=O)c(-c2c(-c3ccc4c(c3)OCCO4)sc3ccccc23)c1OC(=O)SC(C)(C)C` [1-092] the “K: Italian ryegrass, herbicidal effect” value was 0 (Herbicidal rate of 5% or less (almost no effect)). With `Cc1nn(C)c(=O)c(-c2c(-c3ccc4c(c3)CCO4)sc3ccccc23)c1O` [1-101] the “K: Italian ryegrass, herbicidal effect” value was 4 (Herbicidal rate of 70% or more and less than 90%).

What follows are compounds tested on Japanese bulrush (assay: Test Example 2: herbicidal activity, application during weed generation under submerged conditions (Table 17, symbol B)). Conditions: AAH 320 g/ha; application during weed generation, submerged conditions.
Assay type: in vivo, Japanese bulrush (Schoenoplectus juncoides)
Summary of the method: as §3
For `Cc1nn(C)c(=O)c(-c2c(-c3ccc4c(c3)OCCO4)sc3ccccc23)c1OC(=O)SC(C)(C)C` [1-092], the “herbicidal effect rating, B: Japanese bulrush” value was 1 (Herbicidal rate of 5% or more and less than 20%). For `Cc1nn(C)c(=O)c(-c2c(-c3ccc4c(c3)CCO4)sc3ccccc23)c1O` [1-101], the “herbicidal effect rating, B: Japanese bulrush” value was 5 (Herbicidal rate of 90% or more (almost completely withered)).

Each compound was assayed on velvetleaf (assay: Test Example 4: herbicidal effect by soil treatment (Table 19, symbol M)). Conditions: amount of applied herbicide 320 g/ha.
Assay type: in vivo, velvetleaf (Abutilon theophrasti)
Summary of the method: as §1
`Cc1nn(C)c(=O)c(-c2c(-c3ccc4c(c3)OCCO4)sc3ccccc23)c1OC(=O)SC(C)(C)C` [1-092] was tested, and the “herbicidal effect rating, M: velvetleaf” value was 0 (Herbicidal rate of 5% or less (almost no effect)). In the case of `Cc1nn(C)c(=O)c(-c2c(-c3ccc4c(c3)CCO4)sc3ccccc23)c1O` [1-101], the “herbicidal effect rating, M: velvetleaf” value is reported as 0 (Herbicidal rate of 5% or less (almost no effect)).

What follows are compounds tested on oval-leafed pondweed (assay: Test Example 2: herbicidal activity, application during weed generation under submerged conditions (Table 17, symbol C)). Conditions: AAH 320 g/ha; application during weed generation, submerged conditions.
Assay type: in vivo, oval-leafed pondweed (Monochoria vaginalis)
Summary of the method: as §3
In the case of `Cc1nn(C)c(=O)c(-c2c(-c3ccc4c(c3)OCCO4)sc3ccccc23)c1OC(=O)SC(C)(C)C` [1-092], the “herbicidal effect rating, C: oval-leafed pondweed” value is reported as 0 (Herbicidal rate of 5% or less (almost no effect)). For `Cc1nn(C)c(=O)c(-c2c(-c3ccc4c(c3)CCO4)sc3ccccc23)c1O` [1-101], the “herbicidal effect rating, C: oval-leafed pondweed” value was 5 (Herbicidal rate of 90% or more (almost completely withered)).

The compounds below were run on barnyard grass (assay: Test Example 4: herbicidal effect by soil treatment (Table 19, symbol H)). Conditions: amount of applied herbicide 320 g/ha.
Assay type: in vivo, barnyard grass (Echinochloa crus-galli)
Summary of the method: as §1
`Cc1nn(C)c(=O)c(-c2c(-c3ccc4c(c3)OCCO4)sc3ccccc23)c1OC(=O)SC(C)(C)C` [1-092] was tested, and the “herbicidal effect rating, H: barnyard grass” value was 0 (Herbicidal rate of 5% or less (almost no effect)). For `Cc1nn(C)c(=O)c(-c2c(-c3ccc4c(c3)CCO4)sc3ccccc23)c1O` [1-101], the “herbicidal effect rating, H: barnyard grass” value was 5 (Herbicidal rate of 90% or more (almost completely withered)).

The compounds below were run on persian speedwell (assay: Test Example 5: herbicidal effect by foliage application, plastic box (Table 20, symbol R)). Conditions: foliage application, AAH 320 g/ha, three weeks after application.
Assay type: in vivo, Persian speedwell (Veronica persica)
Summary of the method: as §2
`Cc1nn(C)c(=O)c(-c2c(-c3ccc4c(c3)OCCO4)sc3ccccc23)c1OC(=O)SC(C)(C)C` [1-092] was tested, and the “R: persian speedwell, herbicidal effect” value was 5 (Herbicidal rate of 90% or more (almost completely withered)). For `Cc1nn(C)c(=O)c(-c2c(-c3ccc4c(c3)CCO4)sc3ccccc23)c1O` [1-101], the “R: persian speedwell, herbicidal effect” value was 5 (Herbicidal rate of 90% or more (almost completely withered)).
